Laboratory results: patent US20090018111A1, “Novel Antimicrobial Medicament” (priority 2004, published 2009)
Read-outs that look alike come from different tables or passages of the source.

How the values were obtained:
Experiment in all cases: Sensitivity test (agar dilution), clinical isolate
[1] = test system: B. cepacia 7438; type: cell-based, Burkholderia cepacia
Method: (§1) In addition, the antibacterial activities were tested against strains which are comparatively less sensitive to β-lactam compounds, namely clinically isolated 13 strains of Acinetobacter calcoaceticus and Acinetobacter lwoffi, clinically isolated 11 strains of Serratia marcescens, clinically isolated 12 strains of Burkholderia cepacia, and clinically isolated 15 strains of Pseudomonas aeruginosa.
(§2) According to the standard method of Japan Chemotherapeutic Society (Chemotherapy, vol. […], p 76-79 (1981)) the test was carried out using the agar dilution method. After dissolving test samples in distilled water, agar medium containing the test samples was prepared in such a manner that the final concentration became twice serial dilution by pouring serially diluted combination drug solution or a single drug solution into agar medium. As agar medium was used Mueller Hinton Agar medium (MHA). Then, each strain was cultivated over night at 37° C. in an incubator and suspended in buffered saline solution with gelatin (BSG) in the concentration of about 10^6 CFU/ml. The suspension (about 5 μl) containing test strains was inoculated to the medium containing the test samples by Micro Planter.
(§3) Each drug was weighed, and dissolved in distilled water to give a test sample. When the drugs are used in combination, two kinds of solution containing each drug were mixed so as to be various ratio of concentration to give a mixed solution. When the sample is subjected to sensitivity test, this mixed solution was diluted by twice serial dilution method.
(§4) Furthermore, when the drug is solely used, each test sample was used as it is, and diluted by twice serial dilution method from the maximum concentration to the minimum concentration.

[2] = test system: B. cepacia 14427; type: cell-based, Burkholderia cepacia
Method: as §1, §2, §3, §4

[3] = test system: Acinetobacter spp. Jan-99 (second line, r15); type: cell-based, Acinetobacter calcoaceticus and Acinetobacter lwoffi; conditions: read-out: MIC
Method: as §1, §2, §3, §4

[4] = test system: Acinetobacter spp. 1399-2; type: cell-based, Acinetobacter calcoaceticus and Acinetobacter lwoffi
Method: as §1, §2, §3, §4

[5] = test system: Acinetobacter spp. 256; type: cell-based, Acinetobacter calcoaceticus and Acinetobacter lwoffi
Method: as §1, §2, §3, §4

[6] = test system: Acinetobacter spp. Jan-54; type: cell-based, Acinetobacter calcoaceticus and Acinetobacter lwoffi
Method: as §1, §2, §3, §4

[7] = test system: Acinetobacter spp. 1195; type: cell-based, Acinetobacter calcoaceticus and Acinetobacter lwoffi; conditions: read-out: MIC
Method: as §1, §2, §3, §4

[8] = test system: Acinetobacter spp. 1398-2; type: cell-based, Acinetobacter calcoaceticus and Acinetobacter lwoffi
Method: as §1, §2, §3, §4

[9] = test system: Acinetobacter spp. 14712; type: cell-based, Acinetobacter calcoaceticus and Acinetobacter lwoffi
Method: as §1, §2, §3, §4

[10] = test system: Acinetobacter spp. 1198; type: cell-based, Acinetobacter calcoaceticus and Acinetobacter lwoffi; conditions: read-out: MIC
Method: as §1, §2, §3, §4

[11] = test system: Acinetobacter spp. Jan-99; type: cell-based, Acinetobacter calcoaceticus and Acinetobacter lwoffi; conditions: Acinetobacter, read-out: MIC
Method: as §1, §2, §3, §4

[12] = test system: Acinetobacter spp. 1338-2; type: cell-based, Acinetobacter calcoaceticus and Acinetobacter lwoffi; conditions: read-out: MIC
Method: as §1, §2, §3, §4

[13] = test system: Acinetobacter spp. 175; type: cell-based, Acinetobacter calcoaceticus and Acinetobacter lwoffi; conditions: Acinetobacter, read-out: MIC
Method: as §1, §2, §3, §4

[14] = test system: Acinetobacter spp. Jan-81; type: cell-based, Acinetobacter calcoaceticus and Acinetobacter lwoffi
Method: as §1, §2, §3, §4

[15] = test system: Acinetobacter spp. 227-1; type: cell-based, Acinetobacter calcoaceticus and Acinetobacter lwoffi
Method: as §1, §2, §3, §4

SMILES: C[C@H]1C=C(c2csc(SC3=C(C(=O)O)N4C(=O)[C@H]([C@@H](C)O)[C@H]4[C@H]3C)n2)CN1 [SM, (4R,5S,6S)-6-[(1R)-1-Hydroxyethyl]-4-methyl-3-({4-[(5S)-5-methyl-2,5-dihydro-1H-pyrrol-3-yl]-1,3-thiazol-2-yl}sulfanyl)-7-oxo-1-azabicyclo[3.2.0]hept-2-ene-2-carboxylic acid]
- MIC ([1]; Burkholderia cepacia, 7438, Concomitant (ME:SM = 1:1)): 2 µg/mL
- MIC ([1]; Burkholderia cepacia, 7438, Concomitant (ME:SM = 1:2)): 2 µg/mL
- MIC ([1]; Burkholderia cepacia, 7438, Concomitant (ME:SM = 1:4)): 8 µg/mL
- MIC ([1]; Burkholderia cepacia, 7438, Concomitant (ME:SM = 2:1)): 1 µg/mL
- MIC ([1]; Burkholderia cepacia, 7438, alone): 16 µg/mL
- MIC ([2]; Burkholderia cepacia, 14427, Concomitant (ME:SM = 1:1)): 1 µg/mL
- MIC ([2]; Burkholderia cepacia, 14427, Concomitant (ME:SM = 1:2)): 1 µg/mL
- MIC ([2]; Burkholderia cepacia, 14427, Concomitant (ME:SM = 1:4)): 2 µg/mL
- MIC ([2]; Burkholderia cepacia, 14427, Concomitant (ME:SM = 2:1)): 0.5 µg/mL
- MIC ([2]; Burkholderia cepacia, 14427, alone): 8 µg/mL
- MIC ([3]; Concomitant (ME:SM = 1:1)): 0.5 µg/mL
- MIC ([3]; Concomitant (ME:SM = 1:2)): 0.5 µg/mL
- MIC ([3]; Concomitant (ME:SM = 1:4)): 0.5 µg/mL
- MIC ([3]; Concomitant (ME:SM = 2:1)): 0.25 µg/mL
- MIC ([3]; alone): 2 µg/mL
- MIC ([4]; SPP.13992, Concomitant (ME:SM = 1:1)): 0.5 µg/mL
- MIC ([4]; SPP.13992, Concomitant (ME:SM = 1:2)): 1 µg/mL
- MIC ([4]; SPP.13992, Concomitant (ME:SM = 1:4)): 1 µg/mL
- MIC ([4]; SPP.13992, Concomitant (ME:SM = 2:1)): 0.25 µg/mL
- MIC ([4]; SPP.13992, alone): 2 µg/mL
- MIC ([5]; SPP.256, Concomitant (ME:SM = 1:1)): 0.5 µg/mL
- MIC ([5]; SPP.256, Concomitant (ME:SM = 1:2)): 1 µg/mL
- MIC ([5]; SPP.256, Concomitant (ME:SM = 1:4)): 1 µg/mL
- MIC ([5]; SPP.256, Concomitant (ME:SM = 2:1)): 0.25 µg/mL
- MIC ([5]; SPP.256, alone): 1 µg/mL
- MIC ([6]; Concomitant (ME:SM = 1:1)): 0.5 µg/mL
- MIC ([6]; Concomitant (ME:SM = 1:2)): 1 µg/mL
- MIC ([6]; Concomitant (ME:SM = 1:4)): 1 µg/mL
- MIC ([6]; Concomitant (ME:SM = 2:1)): 0.25 µg/mL
- MIC ([6]; alone): 2 µg/mL
- MIC ([7]; SPP.1195, Concomitant (ME:SM = 1:1)): 0.25 µg/mL
- MIC ([7]; SPP.1195, Concomitant (ME:SM = 1:2)): 0.25 µg/mL
- MIC ([7]; SPP.1195, Concomitant (ME:SM = 1:4)): 0.25 µg/mL
- MIC ([7]; SPP.1195, Concomitant (ME:SM = 2:1)): 0.125 µg/mL
- MIC ([7]; SPP.1195, alone): 0.5 µg/mL
- MIC ([8]; SPP.13982, Concomitant (ME:SM = 1:1)): 2 µg/mL
- MIC ([8]; SPP.13982, Concomitant (ME:SM = 1:2)): 4 µg/mL
- MIC ([8]; SPP.13982, Concomitant (ME:SM = 1:4)): 4 µg/mL
- MIC ([8]; SPP.13982, Concomitant (ME:SM = 2:1)): 2 µg/mL
- MIC ([8]; SPP.13982, alone): 8 µg/mL
- MIC ([9]; SPP.14712, Concomitant (ME:SM = 1:1)): 0.5 µg/mL
- MIC ([9]; SPP.14712, Concomitant (ME:SM = 1:2)): 1 µg/mL
- MIC ([9]; SPP.14712, Concomitant (ME:SM = 1:4)): 1 µg/mL
- MIC ([9]; SPP.14712, Concomitant (ME:SM = 2:1)): 0.25 µg/mL
- MIC ([9]; SPP.14712, alone): 2 µg/mL
- MIC ([10]; SPP.1198, Concomitant (ME:SM = 1:1)): 0.25 µg/mL
- MIC ([10]; SPP.1198, Concomitant (ME:SM = 1:2)): 0.25 µg/mL
- MIC ([10]; SPP.1198, Concomitant (ME:SM = 1:4)): 0.25 µg/mL
- MIC ([10]; SPP.1198, Concomitant (ME:SM = 2:1)): 0.125 µg/mL
- MIC ([10]; SPP.1198, alone): 0.5 µg/mL
- MIC ([11]; Concomitant (ME:SM = 1:1)): 0.25 µg/mL
- MIC ([11]; Concomitant (ME:SM = 1:2)): 0.25 µg/mL
- MIC ([11]; Concomitant (ME:SM = 1:4)): 0.5 µg/mL
- MIC ([11]; Concomitant (ME:SM = 2:1)): 0.125 µg/mL
- MIC ([11]; alone): 0.5 µg/mL
- MIC ([12]; SPP.13382, Concomitant (ME:SM = 1:1)): 0.5 µg/mL
- MIC ([12]; SPP.13382, Concomitant (ME:SM = 1:2)): 1 µg/mL
- MIC ([12]; SPP.13382, Concomitant (ME:SM = 1:4)): 0.5 µg/mL
- MIC ([12]; SPP.13382, Concomitant (ME:SM = 2:1)): 0.25 µg/mL
- MIC ([12]; SPP.13382, alone): 0.5 µg/mL
- MIC ([13]; SPP.175, Concomitant (ME:SM = 1:1)): 0.125 µg/mL
- MIC ([13]; SPP.175, Concomitant (ME:SM = 1:2)): 0.125 µg/mL
- MIC ([13]; SPP.175, Concomitant (ME:SM = 1:4)): 0.25 µg/mL
- MIC ([13]; SPP.175, Concomitant (ME:SM = 2:1)): 0.063 µg/mL
- MIC ([13]; SPP.175, alone): 0.5 µg/mL
- MIC ([14]; Concomitant (ME:SM = 1:1)): 8 µg/mL
- MIC ([14]; Concomitant (ME:SM = 1:2)): 4 µg/mL
- MIC ([14]; Concomitant (ME:SM = 1:4)): 8 µg/mL
- MIC ([14]; Concomitant (ME:SM = 2:1)): 2 µg/mL
- MIC ([14]; alone): 32 µg/mL
- MIC ([15]; SPP.2271, Concomitant (ME:SM = 1:1)): 0.5 µg/mL
- MIC ([15]; SPP.2271, Concomitant (ME:SM = 1:2)): 1 µg/mL
- MIC ([15]; SPP.2271, Concomitant (ME:SM = 1:4)): 1 µg/mL
- MIC ([15]; SPP.2271, Concomitant (ME:SM = 2:1)): 0.25 µg/mL
- MIC ([15]; SPP.2271, alone): 2 µg/mL
